Assays:
T-47D = assay: NCI one-dose screening, breast cancer T-47D; type: cell-based, human; conditions: 10 μM
ACHN = assay: NCI one-dose screening, renal cancer ACHN; type: cell-based, human; conditions: 10 μM
HS 578-T = assay: NCI one-dose screening, breast cancer HS 578-T; type: cell-based, human; conditions: 10 μM; Breast cancer
U251 = assay: NCI one-dose screening, CNS cancer U251; type: cell-based, human; conditions: 10 μM
HOP-92 = assay: NCI one-dose screening, non-small cell lung cancer HOP-92; type: cell-based, human; conditions: 10 μM
SK-MEL-28 = assay: NCI one-dose screening, melanoma SK-MEL-28; type: cell-based, human; conditions: 10 μM
TK-10 = assay: NCI one-dose screening, renal cancer TK-10; type: cell-based, human; conditions: 10 μM
COLO 205 = assay: NCI one-dose screening, colon cancer COLO 205; type: cell-based, human; conditions: 10 μM
HCT-15 = assay: NCI one-dose screening, colon cancer HCT-15; type: cell-based, human; conditions: 10 μM
SNB-75 = assay: NCI one-dose screening, CNS cancer SNB-75; type: cell-based, human; conditions: 10 μM
SF-539 = assay: NCI one-dose screening, CNS cancer SF-539; type: cell-based, human; conditions: 10 μM
MDA-MB-231/ATCC = assay: NCI one-dose screening, breast cancer MDA-MB-231/ATCC; type: cell-based, human; conditions: 10 μM
SK-MEL-2 = assay: NCI one-dose screening, melanoma SK-MEL-2; type: cell-based, human; conditions: 10 μM
DU145 = assay: NCI one-dose screening, prostate cancer DU145; type: cell-based, human; conditions: 10 μM
SNB-19 = assay: NCI one-dose screening, CNS cancer SNB-19; type: cell-based, human; conditions: 10 μM
MALME-3M = assay: NCI one-dose screening, melanoma MALME-3M; type: cell-based, human; conditions: 10 μM
NCI-H460 = assay: NCI one-dose screening, non-small cell lung cancer NCI-H460; type: cell-based, human; conditions: 10 μM
RXF, 393 = assay: NCI one-dose screening, renal cancer RXF, 393; type: cell-based, human; conditions: 10 μM
HT29 = assay: NCI one-dose screening, colon cancer HT29; type: cell-based, human; conditions: 10 μM
MCF7 = assay: NCI one-dose screening, breast cancer MCF7; type: cell-based, human; conditions: 10 μM
UACC-62 = assay: NCI one-dose screening, melanoma UACC-62; type: cell-based, human; conditions: 10 μM
EKVX = assay: NCI one-dose screening, non-small cell lung cancer EKVX; type: cell-based, human; conditions: 10 μM
MDA-MB-468 = assay: NCI one-dose screening, breast cancer MDA-MB-468; type: cell-based, human; conditions: 10 μM
SN12C = assay: NCI one-dose screening, renal cancer SN12C; type: cell-based, human; conditions: 10 μM
NCl/ADR-RES = assay: NCI one-dose screening, breast cancer NCl/ADR-RES; type: cell-based, human; conditions: 10 μM; listed under Ovarian cancer
HCT-116 = assay: NCI one-dose screening, colon cancer HCT-116; type: cell-based, human; conditions: 10 μM
BT-549 = assay: NCI one-dose screening, breast cancer BT-549; type: cell-based, human; conditions: 10 μM
human tumor cell lines = assay: NCI one-dose screening, Mean / Delta / Range of growth percent over all tested cell lines; type: cell-based; conditions: 10 μM
HCC-2998 = assay: NCI one-dose screening, colon cancer HCC-2998; type: cell-based, human; conditions: 10 μM
OVCAR-5 = assay: NCI one-dose screening, ovarian cancer OVCAR-5; type: cell-based, human; conditions: 10 μM
LOX IMVI = assay: NCI one-dose screening, melanoma LOX IMVI; type: cell-based, human; conditions: 10 μM
CAKI-1 = assay: NCI one-dose screening, renal cancer CAKI-1; type: cell-based, human; conditions: 10 μM
NCI-H226 = assay: NCI one-dose screening, non-small cell lung cancer NCI-H226; type: cell-based, human; conditions: 10 μM
SK-OV-3 = assay: NCI one-dose screening, ovarian cancer SK-OV-3; type: cell-based, human; conditions: 10 μM
SK-MEL-5 = assay: NCI one-dose screening, melanoma SK-MEL-5; type: cell-based, human; conditions: 10 μM
HOP-62 = assay: NCI one-dose screening, non-small cell lung cancer HOP-62; type: cell-based, human; conditions: 10 μM
K562cell line = assay: NCI one-dose screening, leukemia K562; type: cell-based, human; conditions: 10 μM
[1] = tested on: PC-3 prostate cancer cell line; assay: SRB assay cell viability, PC-3 prostate cancer cell line; type: cell-based, human; conditions: Homo sapiens, PC-3 prostate cancer cell line, Table II prints no unit, μM printed, read-out: SRB assay: 50% inhibition of cancer cell proliferation of sample concentration (IC50) of PC-3 prostate cancer cell line
UO-31 = assay: NCI one-dose screening, renal cancer UO-31; type: cell-based, human; conditions: 10 μM
[2] = NCI one-dose screening, renal cancer A489; type: cell-based, human; conditions: 10 μM
NCI-H23 = assay: NCI one-dose screening, non-small cell lung cancer NCI-H23; type: cell-based, human; conditions: 10 μM
OVCAR-8 = assay: NCI one-dose screening, ovarian cancer OVCAR-8; type: cell-based, human; conditions: 10 μM
MDA, -MB-435 = assay: NCI one-dose screening, breast cancer MDA, -MB-435; type: cell-based, human; conditions: 10 μM; listed under Melanoma
A549/ATCC = assay: NCI one-dose screening, non-small cell lung cancer A549/ATCC; type: cell-based, human; conditions: 10 μM
HL-60, TB = assay: NCI one-dose screening, leukemia HL-60, TB; type: cell-based, human; conditions: 10 μM
UACC-257 = assay: NCI one-dose screening, melanoma UACC-257; type: cell-based, human; conditions: 10 μM
SR = assay: NCI one-dose screening, leukemia SR; type: cell-based, human; conditions: 10 μM
MOLT-4 = assay: NCI one-dose screening, leukemia MOLT-4; type: cell-based, human; conditions: 10 μM
IGROV1 = assay: NCI one-dose screening, ovarian cancer IGROV1; type: cell-based, human; conditions: 10 μM
PC-3 = assay: NCI one-dose screening, prostate cancer PC-3; type: cell-based, human; conditions: 10 μM
NCI-H522 = assay: NCI one-dose screening, non-small cell lung cancer NCI-H522; type: cell-based, human; conditions: 10 μM
OVCAR-3 = assay: NCI one-dose screening, ovarian cancer OVCAR-3; type: cell-based, human; conditions: 10 μM
M14 = assay: NCI one-dose screening, melanoma M14; type: cell-based, human; conditions: 10 μM
PRMI-8226 cell line = assay: NCI one-dose screening, leukemia PRMI-8226; type: cell-based, human; conditions: 10 μM
786-O = assay: NCI one-dose screening, renal cancer 786-O; type: cell-based, human; conditions: 10 μM
SF-268 = assay: NCI one-dose screening, CNS cancer SF-268; type: cell-based, human; conditions: 10 μM
KM12 = assay: NCI one-dose screening, colon cancer KM12; type: cell-based, human; conditions: 10 μM
SF-295 = assay: NCI one-dose screening, CNS cancer SF-295; type: cell-based, human; conditions: 10 μM

Question: Which results are given for `O=C1c2ccccc2C(=O)c2c1cc(Sc1ccc(F)cc1F)c1nsnc21` [C39, 4-(2,4-difluorophenylthio)anthra[2,1-c] [1,2,5]thiadiazol-6,11-dione]?
Answer: Growth Percent T-47D (T-47D): −28.61%; Growth Percent ACHN (ACHN): 34.93%; Growth Percent HS 578T (HS 578-T): 50.08%; Growth Percent U251 (U251): 34.47%; Growth Percent HOP-92 (HOP-92): −18.39%; Growth Percent SK-MEL-28 (SK-MEL-28): 79.45%; Growth Percent TK-10 (TK-10): 111.93%; Growth Percent COLO 205 (COLO 205): 104.04%; Growth Percent HCT-15 (HCT-15): 45.84%; Growth Percent SNB-75 (SNB-75): 42.86%; Growth Percent SF-539 (SF-539): 58.79%; Growth Percent MDA-MB-231/ATCC (MDA-MB-231/ATCC): −9.73%; Growth Percent SK-MEL-2 (SK-MEL-2): 51.79%; Growth Percent DU145 (DU145): 41.32%; Growth Percent SNB-19 (SNB-19): 87.35%; Growth Percent MALME-3M (MALME-3M): 39.46%; Growth Percent NCI-H460 (NCI-H460): 83.60%; Growth Percent RXF 393 (RXF, 393): 36.69%; Growth Percent HT29 (HT29): 102.45%; Growth Percent MCF7 (MCF7): 6.58%; Growth Percent UACC-62 (UACC-62): 53.27%; Growth Percent EKVX (EKVX): 98.12%; Growth Percent MDA-MB-468 (MDA-MB-468): −86.96%; Growth Percent SN12C (SN12C): 9.12%; Growth Percent NCI/ADR-RES (NCl/ADR-RES): −26.24%; Growth Percent HCT-116 (HCT-116): −63.06%; Growth Percent BT-549 (BT-549): 66.40- Percent; Growth Percent Delta (human tumor cell lines; delta over all cell lines): 119.50%; Growth Percent Mean (human tumor cell lines; mean over all cell lines): 32.54%; Growth Percent Range (human tumor cell lines; range over all cell lines): 198.89%; Growth Percent HCC-2998 (HCC-2998): 107.02%; Growth Percent OVCAR-5 (OVCAR-5): 110.21%; Growth Percent LOX IMVI (LOX IMVI): −42.03%; Growth Percent CAKI-1 (CAKI-1): 24.02%; Growth Percent NCI-H226 (NCI-H226): 88.85%; Growth Percent SK-OV-3 (SK-OV-3): 92.58%; Growth Percent SK-MEL-5 (SK-MEL-5): 48.53%; Growth Percent HOP-62 (HOP-62): 58.46%; Growth Percent K562 (K562cell line): −21.06%; IC50 [1]: 14.8 µM; Growth Percent UO-31 (UO-31): 70.30%; Growth Percent A498 [2]: 50.80%; Growth Percent NCI-H23 (NCI-H23): 9.53%; Growth Percent OVCAR-8 (OVCAR-8): 0.32%; Growth Percent MDA-MB-435 (MDA, -MB-435): −85.27%; Growth Percent A549/ATCC (A549/ATCC): 111.54%; Growth Percent HL-60(TB) (HL-60, TB): −37.71%; Growth Percent UACC-257 (UACC-257): 43.93%; Growth Percent SR (SR): 0.20%; Growth Percent MOLT-4 (MOLT-4): −41.57%; Growth Percent IGROV1 (IGROV1): 975%; Growth Percent PC-3 (PC-3): −9.72%; Growth Percent NCI-H522 (NCI-H522): 61.06%; Growth Percent OVCAR-3 (OVCAR-3): −52.32%; Growth Percent M14 (M14): 53.77%; Growth Percent RPMI-8226 (PRMI-8226 cell line): 6.29%; Growth Percent 786-0 (786-O): 3.74%; Growth Percent SF-268 (SF-268): 8.47%; Growth Percent KM12 (KM12): 51.79%; Growth Percent SF-295 (SF-295): 68.77%

Reference: patent US8877748B2, “Heterocyclic fused anthraquinone derivatives, manufacturing method and pharmaceutical composition using thereof” (National Defense Medical Center, priority 2012, dated 2014)
